Each molecule was assayed against T1, CA-IX (Homo sapiens, UniProt Q16790) (assay: CA-IX combinatorial library screening, competitive fluorescence-based assay with dansylamide (DNSA)). Details: 1 h; Table 1, Libraries 1-3; sample concentrations 100 nM and 1000 nM, DNSA 200 μM; screening at 1 μM; read-out: In Vitro Binding Assay (Library Screening).
T1 construct: His tag (C); purchased R&D Systems Inc. 2188-CA; host or cells: mouse myeloma cell line NS0
Format: binding
Experimental: General. CA-IX human recombinant enzyme was expressed with a C-terminal His tag in a mouse myeloma cell line, NS0 (R&D Systems Inc., catalog number 2188-CA). The human red blood cells were obtained from Research Blood Components, LLC. All absorbance measurements were performed on a SPECTRA MAX M2 plate reader at 25° C. The LC/MS analyses were performed on an Agilent 1100 series LC/MSD (SL) using a 30×2.1 mm Zorbax C8 column with a Phenomenex C18 pre-column. Compound detection was accomplished by electrospray mass spectroscopy in positive selected ion mode (LC/MS-SIM). The elution solvents were acetonitrile and water, contained 0.05% TFA. Nuclear magnetic resonance (NMR) spectra were obtained on a Bruker AMX 300 MHz spectrometer or a Varian 400. 19F NMR spectra were recorded on a Bruker AMX 282.35 MHz or a Varian 400 spectrometer. The mass spectra were recorded on an Agilent 1100 series LC/MSD with electrospray mass spectroscopic detection. Flash column chromatography was performed on Merck silica gel (40-63 μm) using the solvent system indicated. The radiochemical and chemical purities were analyzed by RP-HPLC.
General Combinatorial Library Screening Protocol for CA-IX
The CA-IX screening assay was employed for testing libraries derived from the various “anchor” molecules, using ethoxzolamide as a positive control. The assay was performed at a substrate (dansylamide, DNSA) concentration of 200 μM, and sample concentrations of 100 nM and 1000 nM, respectively. A modified competitive fluorescence-based assay (A. Jain, S. G. Huang, G. M. Whitesides, J. Am. Chem. Soc. 1994, 116, 5057) was used to measure CA-IX activity. The enzymatic assay was carried out in a 96-well plate. To the wells, deionized water, 40 μL of phosphate buffer (250 mM, pH 7.4), 2.4 μL of CA-IX (17 μM), and 2 μL or 20 μL of inhibitor (concentration of 100 nM or 1000 nM) were added to achieve a final volume of 180 μL. Reactions were initiated by adding 20 μL DNSA (200 μM) to each well and the plate was incubated at 25° C. for 1 hour. The fluorescence intensities from each well of the plate were then read at 460 nm using a plate reader with an excitation wavelength of 290 nm.

inhibition at 1 µM | SMILES
< 40% | COC(=O)[C@H](CSCc1ccccc1)NC(=O)Cn1cc(-c2ccc(S(N)(=O)=O)cc2)nn1 [DHK4]
< 40% | NS(=O)(=O)c1ccc(-c2cn(CC(O)CN3C(=O)c4ccccc4C3=O)nn2)cc1 (stereo not drawn) [DHK8]
< 40% | CC(CN(C)C)Cn1cc(-c2ccc(S(N)(=O)=O)cc2)nn1 (stereo not drawn) [DHK14]
< 40% | CC1CCCN(C(=O)C(C(C)C)n2cc(-c3ccc(S(N)(=O)=O)cc3)nn2)C1 (stereo not drawn) [DHK15]
< 40% | Cc1ccc(CNC(=O)[C@@H](C(C)C)n2cc(-c3ccc(S(N)(=O)=O)cc3)nn2)cc1F [DHK20]
< 40% | COc1ccc2nc3cc(Cl)ccc3c(NCCCn3cc(-c4ccc(S(N)(=O)=O)cc4)nn3)c2c1 [DHK24]
< 40% | Cc1cc(NC(=O)Cn2cc(-c3ccc(S(N)(=O)=O)cc3)nn2)n(C)n1 [DHK26]
< 40% | NS(=O)(=O)c1ccc(-c2cn(Cc3nc4ccccc4[nH]3)nn2)cc1 [DHK27]
< 40% | Cc1ccnc(NC(=O)[C@H](Cc2ccccc2)n2cc(CNC(=O)c3ccc(S(N)(=O)=O)cc3)nn2)c1 [DHK36]
< 40% | NS(=O)(=O)c1ccc(C(=O)NCc2cn(-c3cccc(C(=O)NN4CCOCC4)c3)nn2)cc1 [DHK39]
< 40% | CC(C)C(C(=O)NCc1cc(F)ccc1F)n1cc(CNC(=O)c2ccc(S(N)(=O)=O)cc2)nn1 (stereo not drawn) [DHK40]
< 40% | CC(C)C[C@@H](C(=O)NCc1ccccc1)n1cc(CNC(=O)c2ccc(S(N)(=O)=O)cc2)nn1 [DHK41]
< 40% | Cc1ccc(C)c(CNC(=O)[C@H](Cc2ccccc2)n2cc(CNC(=O)c3ccc(S(N)(=O)=O)cc3)nn2)c1 [DHK45]
< 40% | NS(=O)(=O)c1ccc(C(=O)NCc2cn(Cn3c(=S)sc4ccccc43)nn2)cc1 [DHK48]
< 40% | CC(C)[C@@H](C(=O)NC1CCCCC1)n1cc(CNC(=O)c2ccc(S(N)(=O)=O)cc2)nn1 [DHK50]
< 40% | CC(C)[C@@H](C(=O)NCc1ccco1)n1cc(CNC(=O)c2ccc(S(N)(=O)=O)cc2)nn1 [DHK54]
< 40% | NS(=O)(=O)c1ccc(C(=O)NCc2cn(Cn3nnc4ccccc43)nn2)cc1 [DHK55]
< 40% | COC(=O)C(Cc1ccc(C(=O)O)cc1)n1cc(CNC(=O)c2ccc(S(N)(=O)=O)cc2)nn1 (stereo not drawn) [DHK56]
< 40% | CC(C)C(C(=O)NCCCN1CCOCC1)n1cc(CNC(=O)c2ccc(S(N)(=O)=O)cc2)nn1 (stereo not drawn) [DHK58]

inhibition at 1 µM | SMILES
< 40% | CC(C)[C@@H](C(=O)O)n1cc(CNC(=O)c2ccc(S(N)(=O)=O)cc2)nn1 [DHK60]
< 40% | CC(C)[C@@H](C(=O)Nc1ccc(-c2ccccc2)cc1)n1cc(CNC(=O)c2ccc(S(N)(=O)=O)cc2)nn1 [DHK61]
< 40% | NS(=O)(=O)c1ccc(-c2cn(CC(=O)n3ncc4ccccc43)nn2)cc1 [DHK65]
< 40% | CC(C)[C@@H](C(=O)O)n1cc(-c2ccc(S(N)(=O)=O)cc2)nn1 [DHK66]
< 40% | NS(=O)(=O)c1ccc(-c2cn(CCCCCCO)nn2)cc1 [DHK73]
< 40% | CC(C)C(C(=O)NCCc1ccsc1)n1cc(-c2ccc(S(N)(=O)=O)cc2)nn1 (stereo not drawn) [DHK76]
< 40% | CCCCCC[C@H](O)[C@@H](O)c1ccc(Cn2cc(CNC(=O)c3ccc(S(N)(=O)=O)cc3)nn2)cc1 [DHK85]
< 40% | NS(=O)(=O)c1ccc(C(=O)NCc2cn(-c3ccnc4cc(Cl)ccc34)nn2)cc1 [DHK86]
< 40% | NS(=O)(=O)c1ccc(C(=O)NCc2cn(CCCCCCO)nn2)cc1 [DHK88]
< 40% | NS(=O)(=O)c1ccc(C(=O)NCc2cn(CC(=O)NC(Cc3cnc[nH]3)C(=O)O)nn2)cc1 (stereo not drawn) [DHK92]
< 40% | NCCCn1cc(CNC(=O)c2ccc(S(N)(=O)=O)cc2)nn1 [DHK95]
< 40% | NS(=O)(=O)c1ccc(C(=O)NCc2cn(C3CCN(S(=O)(=O)/C=C/c4ccccc4)CC3)nn2)cc1 [DHK96]
< 40% | NS(=O)(=O)c1ccc(C(=O)NCc2cn(C3CCN(C(=O)/C=C/c4ccccc4)CC3)nn2)cc1 [DHK97]
< 40% | NS(=O)(=O)c1ccc(-c2cn(CCC(=O)Nc3ccccc3)nn2)cc1 [DHK102]
< 40% | NS(=O)(=O)c1ccc(-c2cn(-c3cccc(C(=O)NN4CCOCC4)c3)nn2)cc1 [DHK104]
< 40% | NS(=O)(=O)c1ccc(-c2cn(CC(=O)NC(Cc3cnc[nH]3)C(=O)O)nn2)cc1 (stereo not drawn) [DHK106]
< 40% | NS(=O)(=O)c1ccc(-c2cn(CC(=O)N3CCN(c4cc(Cl)cc(Cl)c4)CC3)nn2)cc1 [DHK107]
< 40% | NCCCn1cc(-c2ccc(S(N)(=O)=O)cc2)nn1 [DHK108]

The next lines start with the molecule.

SMILES | inhibition at 1 µM
CCCOC(=O)c1ccc(NC(=O)Cn2cc(-c3ccc(S(N)(=O)=O)cc3)nn2)cc1 [DHK3] | < 40%
NS(=O)(=O)c1ccc(-c2cn(CCN3CCOCC3)nn2)cc1 [DHK5] | < 40%
CC(C)[C@@H](C(=O)NCc1cc(F)ccc1F)n1cc(-c2ccc(S(N)(=O)=O)cc2)nn1 [DHK11] | < 40%
CC(C)C[C@@H](C(=O)NCc1ccccc1)n1cc(-c2ccc(S(N)(=O)=O)cc2)nn1 [DHK12] | < 40%
NS(=O)(=O)c1ccc(-c2cn(Cc3cccc(Br)c3)nn2)cc1 [DHK18] | < 40%
CCOC(=O)c1ccc(Cn2cc(-c3ccc(S(N)(=O)=O)cc3)nn2)cc1 [DHK22] | < 40%
CC(C)[C@H](C(=O)NCc1ccccc1)n1cc(-c2ccc(S(N)(=O)=O)cc2)nn1 [DHK23] | < 40%
NS(=O)(=O)c1ccc(C(=O)NCc2cn(CCN3CCOCC3)nn2)cc1 [DHK34] | < 40%
CC(CN(C)C)Cn1cc(CNC(=O)c2ccc(S(N)(=O)=O)cc2)nn1 (stereo not drawn) [DHK43] | < 40%
CC1CCCN(C(=O)C(C(C)C)n2cc(CNC(=O)c3ccc(S(N)(=O)=O)cc3)nn2)C1 (stereo not drawn) [DHK44] | < 40%
NS(=O)(=O)c1ccc(C(=O)NCc2cn(Cc3cccc(Br)c3)nn2)cc1 [DHK47] | < 40%
Cc1ccc(CNC(=O)C(C(C)C)n2cc(CNC(=O)c3ccc(S(N)(=O)=O)cc3)nn2)cc1F (stereo not drawn) [DHK49] | < 40%
CCOC(=O)c1ccc(Cn2cc(CNC(=O)c3ccc(S(N)(=O)=O)cc3)nn2)cc1 [DHK51] | < 40%
CC(C)[C@@H](C(=O)NCc1ccccc1)n1cc(CNC(=O)c2ccc(S(N)(=O)=O)cc2)nn1 [DHK52] | < 40%
CCCOC(=O)c1ccc(NC(=O)Cn2cc(CNC(=O)c3ccc(S(N)(=O)=O)cc3)nn2)cc1 [DHK57] | < 40%
CC(C)(C)c1cc(C(=O)Cn2cc(CNC(=O)c3ccc(S(N)(=O)=O)cc3)nn2)cc(C(C)(C)C)c1O [DHK59] | < 40%
NS(=O)(=O)c1ccc(-c2cn(CCOc3ccc4ccc(=O)oc4c3)nn2)cc1 [DHK63] | < 40%
COC(=O)C(Cc1ccc(C(=O)O)cc1)n1cc(-c2ccc(S(N)(=O)=O)cc2)nn1 (stereo not drawn) [DHK67] | < 40%
CCCCCC[C@H](O)[C@@H](O)c1ccc(Cn2cc(-c3ccc(S(N)(=O)=O)cc3)nn2)cc1 [DHK70] | < 40%
NS(=O)(=O)c1ccc(-c2cn(-c3ccnc4cc(Cl)ccc34)nn2)cc1 [DHK71] | < 40%
C=CC1C[N@@]2CCC1CC2[C@@H](c1ccnc2ccc(OC)cc12)n1cc(-c2ccc(S(N)(=O)=O)cc2)nn1 (stereo partly drawn) [DHK72] | < 40%
NS(=O)(=O)c1ccc(-c2cn(CCn3c(=O)[nH]c4ccccc4c3=O)nn2)cc1 [DHK78] | < 40%
NS(=O)(=O)c1ccc(-c2cn(C3CCN(C(=O)/C=C/c4ccccc4)CC3)nn2)cc1 [DHK82] | < 40%
C=CC1C[N@@]2CCC1CC2[C@@H](c1ccnc2ccc(OC)cc12)n1cc(CNC(=O)c2ccc(S(N)(=O)=O)cc2)nn1 (stereo partly drawn) [DHK87] | < 40%
NS(=O)(=O)c1ccc(C(=O)NCc2cn(C(c3ccccc3)[C@@H](OC/C=C/c3ccccc3)c3ccccc3)nn2)cc1 (stereo partly drawn) [DHK90] | < 40%
CC(C)[C@@H](C(=O)NCCc1ccsc1)n1cc(CNC(=O)c2ccc(S(N)(=O)=O)cc2)nn1 [DHK91] | < 40%
NS(=O)(=O)c1ccc(C(=O)NCc2cn(CCn3c(=O)[nH]c4ccccc4c3=O)nn2)cc1 [DHK93] | < 40%
NS(=O)(=O)c1ccc(C(=O)NCc2cn(CC(=O)N3CCN(c4cc(Cl)cc(Cl)c4)CC3)nn2)cc1 [DHK94] | < 40%
NS(=O)(=O)c1ccc(-c2cn(CC(=O)Nc3nccs3)nn2)cc1 [DHK101] | < 40%
